# Laboratory results as given in patent publication US20210145802A1, “THERAPY FOR OPHTHALMOLOGICAL CONDITIONS” (WREN THERAPEUTICS LIMITED, priority 2018, published 2021).
# Experiments:
# Aβ42 fibrils = biological target: T1, Aβ42 fibrils (Homo sapiens, UniProt P05067); assay: Dot-blot assay with fibril-specific OC antibody; assay type: biochemical; settings: 2 μM Aβ42; 5-fold excess of compound; eight time points
# T1 construct: […]; made in house; host or cells: E. coli BL21 Gold (DE3)
# Description: Blotting was performed using Aβ42 fibril-specific antibody (OC, Millipore). During the time course of the aggregation of a 2 μM Aβ42 in the absence and in the presence of 5-fold excess of Netoglitazone, 4 μL Aβ42 aliquots were removed from the mixture at different time points for blotting with OC. Aβ42 aliquots were spotted onto a nitrocellulose membrane (0.2 μm, Whatman) and then the membranes were dried and then blocked with Blocking One (Nacalai tesque) before immuno-detection. OC was used according to the manufacturer's instructions. Alexa Fluor® 488-conjugated secondary antibodies (Life technologies) were subsequently added and fluorescence detection was performed using Typhoon Trio Imager (GE Healthcare).
# Aβ42 = biological target: T2, Aβ42 (Homo sapiens, UniProt P05067); assay: Aβ42 aggregation kinetics in human CSF; assay type: biochemical; settings: 66% CSF; 1.25 and 5-fold excess
# T2 construct: […]; made in house; host or cells: E. coli BL21 Gold (DE3)
# Description: For the experiments of Aβ42 aggregation kinetics in human CSF, monomeric solutions of 3 μM Aβ42 were prepared similar to above with the only exception that the buffer was 20 mM Hepes, pH 8 supplemented with 1 mM CaCl2 at 150 mM NaCl. The obtained monomer was diluted with the […] in order to reach 66% final concentration of CSF, in which the effect of CSF is close to maximum. Aβ42 aggregation kinetics were performed in the absence and the presence of 1.25 and 5-fold excess of Netoglitazone.
# GMC101 (Aβ worms) [1] = assay: Automated motility assay, Aβ worms; assay type: in vivo, C. elegans
# Description: GMC101 dvIs100[unc-54p::A-beta-1-42::unc-54 3′UTR+mt1-2p::GFP]. mt1-2p::GFP produces constitutive expression of GFP in intestinal cells. unc-54p::A-beta-1-42 expresses full-length human Aβ42 peptide in body wall muscle cells that aggregates in vivo. Shifting L4 or young adult animals from 20° to 24° C. causes paralysis (G. McColl et al., Utility of an improved model of amyloid-beta (Aβ1-42) toxicity in Caenorhabditis elegans for drug screening for Alzheimer's disease. Mol Neurodegener. 7, 57 (2012));
# (§1) Briefly, Netoglitazone stocks (5 mM in 100% DMSO) were used at an appropriate concentration to seed 9-cm NGM plates. Plates were then placed in a laminar flow hood at room temperature (22° C.) for up to 4 hours to dry. C. elegans cultures were then transferred onto media seeded with compound as L4 stage or Day 3 for late treatments and incubated at 24° for the whole experiment. Experiments were carried out at different Netoglitazone concentrations ranging from 0.05 to 500 μM in 1% DMSO. As controls, plates seeded only with 1% DMSO were used.
# All C. elegans populations were cultured at 20° C. and developmentally synchronized from a 4 h egg-lay. At 64-72 h post-egg-lay (time zero), individuals were transferred to FUDR plates, and body movements were assessed over the times indicated. At different ages, the animals were washed off the plates with M9 buffer and spread over an OP-50 unseeded 9 cm plate, after which their movements were recorded at 20 fps using a recently developed microscopic procedure (M. Perni et al., Massively parallel C. elegans tracking provides multi-dimensional fingerprints for phenotypic discovery. J. Neurosci. Methods. 306, 57-67 (2018)) for 1 min. Up to 600 animals were counted in each experiment in duplicate unless stated otherwise. […]
# In order to screen for the effect of therapeutics in the most robust way, a wide field-of-view nematode-tracking platform (WF-NTP) was used, which enables the simultaneous investigation of multiple phenotypic readouts on large worm populations. […]
# GMC101 (Aβ worms) [2] = assay: NIAD-4 plaque staining in living Aβ worms; assay type: in vivo, C. elegans
# Description: Plaques staining was carried out as previously described (J. Habchi et al. (2016); M. Perni et al., A natural product inhibits the initiation of α-synuclein aggregation & suppresses its toxicity. Proc. Natl. Acad. Sci. U.S.A. 114, E1009-E1017 (2017)). Briefly, live transgenic animals were incubated with NIAD-4 over a range of concentrations and times, with 1 μM NIAD-4 (0.1% DMSO in M9 buffer) for 4 hours at room temperature. After staining, animals were allowed to recover on NGM plates for about 24 hours to allow destaining via normal metabolism. Stained animals were mounted on 2% agarose pads containing 40 mM NaN3 as anaesthetic on glass microscope slides for imaging. Images were captured with a Zeiss Axio Observer D1 fluorescence microscope (Carl Zeiss Microscopy GmbH) with a 20× objective and a 49004 ET-CY3/TRITC filter (Chroma Technology Corp). Fluorescence intensity was calculated using ImageJ software (National Institutes of Health) and then normalized as the corrected total cell fluorescence. Only the head region was considered because of the high background signal in the guts. All experiments were carried out in triplicate, and the data from one representative experiment are shown. Statistical significance was determined using t tests.
# GMC101 (Aβ worms) [3] = assay: ROS production (ROS-Glo H2O2 assay) in worms; assay type: in vivo, C. elegans; settings: 5 μM; administered at L4; D5 of adulthood
# Description: ROS-Glo™ H2O2 cell kit assay was used (Promega, Fitchburg, Wis., USA) and adapted for C. elegans studies. The ROS-Glo™ H2O2 Assay is a bioluminescent assay that measures the level of H2O2, a reactive oxygen species (ROS), directly in cell culture or tissue or in defined enzyme reactions. A derivatized luciferin substrate is incubated with sample and reacts directly with H2O2 to generate a luciferin precursor. Worms treated with 5 μM Netoglitazone in 1% DMSO or 1% DMSO only were washed using M9 buffer out the NGM plates. The buffer was then changed 3 times to remove the excess bacteria. Worm pellets were then divided in three wells and 80 μl of worm pellet (around 200 worms/well) was incubated for 6 h at RT with 20 μl of a ROS Substrate Solution (Promega, Fitchburg, Wis., USA); mild shaking at 300 rpm was used to avoid worm sedimentation; afterwards, worms were incubated for ca. 20 min with 100 μl of the detection solution; luminescence was then measured with a Clariostar (BMG Labtech, Aylesbury, UK).
# GMC101 (Aβ worms) [4] = settings: GMC101, C. elegans, in vivo
# Description: as §1
# control worms = settings: C. elegans, in vivo
# Description: as §1
# T2 sequence (P05067 671-713): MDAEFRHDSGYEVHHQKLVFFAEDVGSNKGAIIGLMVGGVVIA
# T1 sequence (P05067 671-713): as above
structure (smiles),measurement,setting,value
O=C1NC(=O)C(Cc2ccc3cc(OCc4ccccc4F)ccc3c2)S1 (stereo not shown) [Netoglitazone],delay of Aβ42 fibril formation in dot blot assay compared with ThT-based assay,Aβ42 fibrils,identical within experimental error
same,delay of Aβ42 aggregation kinetics in 66% human CSF,Aβ42,significantly delayed the aggregation kinetics
same,mobility of Aβ worms after treatment at L4,"GMC101 (Aβ worms) [1]; 0-10 μM, administered at L4",greatly improves the mobility
same,mobility after late administration,"GMC101 (Aβ worms) [1]; administered at D3, D5 of adulthood",increase
same,concentration range of best protective effect on mobility,"GMC101 (Aβ worms) [1]; administered at L4, observed at D3 of adulthood",0.5 to 5 µM
same,plaques load (NIAD-4 fluorescence),"GMC101 (Aβ worms) [2]; 0.5 μM, treatment at L4, day 6 of adulthood",significantly decrease the plaques load
same,plaques load after late administration,"GMC101 (Aβ worms) [2]; administered at D3 of adulthood, measured at D6",significant decrease of the plaques load
same,levels of ROS production,GMC101 (Aβ worms) [3],significantly decreased the levels of oxidative species
same,maximum tolerable dose,GMC101 (Aβ worms) [4],less than 50 μM
same,maximum tolerable dose,control worms,< 500 µM
